Patent publication US12568991B2, “Method for increasing the solubility and stability of organic compositions” (GLANBIA DAIRY NUTRITION LIMITED, priority 2017, dated 2026)

Legend:
[1] = format: physicochemical; conditions: pH 7
Source text: Creatine Formulation: A solution of surfactants was made by combining soy lecithin with 48-98% acetone insolubility (3.1 to 9.9 g/100 g as in dispersion or 9.2 to 16.9 g/100 g as in powder) in water (pH 7.0), with maltodextrin MD040 (Maltrin®, Grain Processing Corporation, 4.9-10.2 g/100 g as in dispersion or 12.4-17.7 g/100 g as in powder). Then the micronized (200 Mesh size or 70-80 μm) creatine monohydrate (23.7-40.2 g/100 g as in dispersion or 65.2-79.3 g/100 g as in powder), along with Alpha cyclodextrin (Cavamax®, Wacker Chemie AG, 0-0.26 g/100 g as in dispersion or 0-0.4 g/100 g as in powder), was added to the above solution of surfactants. After premixing the dispersion, it was run through the homogenizer at 500 psi/34 bar, 1 pass. The dispersion thus formed was heated to a pasteurization temperature of 72° C., for 30 min. Finally, this dispersion was spray dried, with TInlet=220-230° C. and TOutlet=92-100° C. Creatine shelf stability was evaluated at pH 3.3-7.0.
For the shelf-stability study, the corresponding spray-dried powders produced from the slurry were used for determining the chemical stability of limited-solubility organic compounds either in a neutral pH (6.8-7.0) drink or an acidic pH (3.3-3.7) drink formula. For this determination, the limited-solubility organic compound-containing beverages were prepared at their respective pHs, using spray-dried powder. […]

[2] = individuals who have high cholesterol; cited from earlier work

Structure (SMILES) | creatine degradation curve (y=% creatine levels, after (x) number of days) [1] | reduction of cholesterol [2]
CN(CC(=O)O)C(=N)N.O [creatine monohydrate] | y=48.294e^−0.024x | 
CN(CC(=O)O)C(=N)N [creatine] |  | up to 15%
